Source: patent US5116995A, “Carbazole compounds” (Taisho Pharmaceutical Co., Ltd., priority 1990, dated 1992)
Read-outs that look alike come from different tables or passages of the source.

Assays:
[1] = biological target: phencyclidine receptor; conditions: rimcazole value from literature (vol. 155, page 345 (1988)); cited from earlier work
[2] = system: sigma receptor; conditions: cited from earlier work
[3] = biological target: D2 receptor; conditions: rimcazole value from literature (vol. 155, page 345 (1988)), [3H]spiporone binding; cited from earlier work
[4] = system: methamphetamine induced hyperlocomotion; assay: inhibition of Methamphetamine induced Hyperlocomotion; type: in vivo, mouse (male ICR); conditions: mice, test drug 50 mg/kg i.p., 35 min before methamphetamine 1 mg/kg i.p.; measured for 30 min from 15 min later; **P < 0.01 (Dunnett's test)
Protocol: Thirty male ICR mice weighing 20 to 35 g were used for each group (5 animals per test, and 6 tests). Mice were placed in the measuring cages, adapted for 60 minutes, and given intraperitoneally the test drugs in Table 1 suspended in 5% gum arabic solution in a dose of 50 mg/kg (0.1 ml/10 g of the body weight). Thirty-five minutes later, methamphetamine dissolved in physiological saline solution was given intraperitoneally in a dose of 1 mg/kg. Fifteen minutes later, the locomotor content was measured for 30 minutes using an Animex apparatus. Control group was given 5% gum arabic only in a similar manner, and […] for measurement. Results are expressed as percentage to control group in Table 2.

[5] = biological target: sigma receptor (Rattus norvegicus, UniProt Q9R0C9); assay: biochemical
[6] = biological target: phencyclidine receptor; assay: Receptor Binding Test: [3H]phencyclidine binding, rat whole brain membranes; design: species or system rat (male Wistar); conditions: rat whole brain membrane, 5 mM Tris-HCl pH 7.7, 25° C., 2 hours
Text: 32, page 820 (1987), respectively.

[7] = biological target: D2 receptor (Rattus norvegicus, UniProt P61169); assay: Receptor Binding Test: (-)-[3H]sulpiride binding, rat striatal membranes
Chain of D2 receptor (Rattus norvegicus, UniProt P61169) (P61169 whole entry): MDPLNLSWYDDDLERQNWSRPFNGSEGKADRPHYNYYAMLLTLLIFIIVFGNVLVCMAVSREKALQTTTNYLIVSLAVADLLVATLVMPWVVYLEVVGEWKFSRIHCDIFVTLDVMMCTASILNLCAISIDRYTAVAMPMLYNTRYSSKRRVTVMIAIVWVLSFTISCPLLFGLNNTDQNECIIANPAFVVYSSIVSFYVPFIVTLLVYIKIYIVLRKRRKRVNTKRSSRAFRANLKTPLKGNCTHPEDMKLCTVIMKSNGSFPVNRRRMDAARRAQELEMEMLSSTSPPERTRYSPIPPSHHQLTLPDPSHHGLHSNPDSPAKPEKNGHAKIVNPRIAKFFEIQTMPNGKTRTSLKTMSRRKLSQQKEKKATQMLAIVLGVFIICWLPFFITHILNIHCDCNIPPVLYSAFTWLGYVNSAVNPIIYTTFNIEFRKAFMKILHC

Chain of sigma receptor (Rattus norvegicus, UniProt Q9R0C9) (Q9R0C9 whole entry): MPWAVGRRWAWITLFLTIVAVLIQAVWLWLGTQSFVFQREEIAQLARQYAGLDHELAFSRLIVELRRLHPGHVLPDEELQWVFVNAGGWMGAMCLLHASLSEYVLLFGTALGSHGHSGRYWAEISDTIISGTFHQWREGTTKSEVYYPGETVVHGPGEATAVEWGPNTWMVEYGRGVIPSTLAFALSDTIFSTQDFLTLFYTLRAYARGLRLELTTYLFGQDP

| Compound | IC50 [1] | affinity and specificity for sigma receptor ([2]; prior art statement) | IC50 ([2]; rimcazole value from literature (vol. 155, page 345 (1988))) | IC50 [3] | locomotor count, % to control group [4] | IC50 [5] | IC50 [6] | IC50 [7] |
| --- | --- | --- | --- | --- | --- | --- | --- | --- |
| C[C@@H]1CN(CCCn2c3ccccc3c3ccccc32)C[C@H](C)N1 [Rimcazole] | > 2 mM | not sufficient | 1460 ± 235 nM | 86 µM | 51.4% | – | – | – |
| CCCN1CCCC(c2cccc(O)c2)C1 (single isomer, unassigned) [3-PPP, 3-(3-hydroxy-phenyl)-N-n-propylpiperidine, reference compound] | – | – | – | – | – | 24.3 ± 2.9 nM | – | – |
| CCCN(CCC)CCc1cccc2[nH]c3c(C)ccc(C)c3c12.Cl [Test drug C, 5,8-dimethyl-4-(2-di-n-propylaminoethyl)carbazole hydrochloride] | – | – | – | – | 35.3% | 4.8 ± 1 nM | > 10 µM | 14.3 µM |
| CCCN(CCC)Cc1cccc2[nH]c3ccccc3c12.Cl [Test drug A, 4-(di-n-propylaminomethyl)carbazole hydrochloride] | – | – | – | – | 39.7% | 891 ± 12.8 nM | > 10 µM | 44.3 µM |
| CCCN(CCC)Cc1cccc2[nH]c3c(C)ccc(C)c3c12.Cl [Test drug B, 5,8-dimethyl-4-(di-n-propylaminomethyl)carbazole hydrochloride] | – | – | – | – | 46.6% | 1020 ± 131 nM | > 10 µM | 23.2 µM |
